The subject of series [1] is Mus musculus. Put plainly: Anticonvulsant activity in Mus musculus Balb/c (mouse) assessed as inhibition of pentylenetetrazol-induced mortality at 100 mg/kg, ip pretreated 30 min before pentylenetetrazol challenge by pentylenetetrazol test. The class given is functional, organism-based. Details: dose 100 mg/kg.
The subject of series [2] is Mus musculus. Put plainly: Anticonvulsant activity in Mus musculus Balb/c (mouse) assessed as decrease in severity of seizure at 100 mg/kg, ip pretreated 30 min before pentylenetetrazol challenge by pentylenetetrazol test. Type of series: functional, organism-based. Details: dose 100 mg/kg.
Series [3] has as its system Mus musculus. Put plainly: Anticonvulsant activity in Mus musculus Balb/c (mouse) assessed as increase in latency to seizure at 100 mg/kg, ip pretreated 30 min before pentylenetetrazol challenge by pentylenetetrazol test. More on the design: dose 100 mg/kg. Type of series: functional, organism-based.
Series [4] relates to Mus musculus. Put plainly: Anticonvulsant activity in Mus musculus Balb/c (mouse) assessed as decrease in severity of seizure at 150 to 200 mg/kg, ip pretreated 30 min before pentylenetetrazol challenge by pentylenetetrazol test. Type of series: functional, organism-based.
For series [5], the system named is Mus musculus. Put plainly: Anticonvulsant activity in Mus musculus Balb/c (mouse) assessed as inhibition of pentylenetetrazol-induced mortality at 150 to 200 mg/kg, ip pretreated 30 min before pentylenetetrazol challenge by pentylenetetrazol test. Type of series: functional, organism-based.
Series [6] concerns Mus musculus. Put plainly: Toxicity in Mus musculus Balb/c (mouse) assessed as duration of spike-wave discharges at 150 mg/kg, ip measured for 2 hr by EEG recordings (reference value: 359.8 +/- 33.5 sec). Details: dose 150 mg/kg, route intraperitoneal. The following applies: in vivo. Type of series: organism-based.
Series [7] relates to Mus musculus. Put plainly: Anticonvulsant activity in Mus musculus Balb/c (mouse) assessed as increase in latency to seizure at 150 to 200 mg/kg, ip pretreated 30 min before pentylenetetrazol challenge by pentylenetetrazol test. The class given is functional, organism-based.
For series [8], the system named is Mus musculus. Put plainly: Toxicity in Mus musculus Balb/c (mouse) assessed as duration of spike-wave discharges at 100 mg/kg, ip measured for 2 hr by EEG recordings (reference value: 359.8 +/- 33.5 sec). The class given is organism-based. More on the design: dose 100 mg/kg, route intraperitoneal. Particulars: in vivo.
Series [9] deals with Mus musculus. Put plainly: Anticonvulsant activity in Mus musculus Balb/c (mouse) assessed as effect on latency of tonic hind limb extension at 100 mg/kg, ip measured after 30 min by maximal electroshock seizure test. Details: dose 100 mg/kg. The following applies: Hindlimb. Type of series: functional, organism-based. For orientation: Protection in the maximal electroshock model is a classic sign of anticonvulsant action.

For series [10], the system named is Mus musculus. Put plainly: Anticonvulsant activity in Mus musculus Balb/c (mouse) assessed as effect on maximal electroshock-induced mortality rate 100 mg/kg, ip measured after 30 min. The class given is functional, organism-based. Details: dose 100 mg/kg.
Series [11] concerns Mus musculus. Put plainly: Anticonvulsant activity in Mus musculus Balb/c (mouse) assessed as decrease in duration of tonic hind limb extension at 100 mg/kg, ip measured after 30 min by maximal electroshock seizure test. The following applies: Hindlimb. Type of series: functional, organism-based. More on the design: dose 100 mg/kg.
Series [12] deals with Mus musculus. Put plainly: Anticonvulsant activity in Mus musculus Balb/c (mouse) assessed as effect on severity of seizure at 150 to 200 mg/kg, ip pretreated 30 min before pentylenetetrazol challenge by pentylenetetrazol test. The class given is functional, organism-based.

The structures appear in SMILES notation. Active and inactive are the calls of the source. No cut-off for these calls is given here.

Take `Cc1n[nH]c(C)c1NC(=O)c1cccnc1`: the inhibition entry in the series with Mus musculus [1] and in the series with Mus musculus [2] was “Active” each time. In the series with Mus musculus [3], the result was Active.
Take `Cc1nn(C(=O)c2ccc(Cl)cc2)c(C)c1NC(=O)c1ccc(Cl)cc1`: the inhibition result in the series with Mus musculus [1] and in the series with Mus musculus [2] was “Active” in each case. In the series on Mus musculus [3], the result was Active.
On to `Cc1nn(C(=O)c2c(Cl)cccc2Cl)c(C)c1NC(=O)c1c(Cl)cccc1Cl`, for which the inhibition entry with Mus musculus [1], in the series on Mus musculus [4], with Mus musculus [5] and in the series on Mus musculus [2] was “Active” in each case. In addition, the Time worked out at 337.5 s in the series with Mus musculus [6] and 300 s in the series with Mus musculus [8]. Moreover, the result in the series on Mus musculus [7] and in the series with Mus musculus [3] was Active.
With `Cc1n[nH]c(C)c1NC(=O)c1ccncc1`, the inhibition entry in the series with Mus musculus [1] and in the series on Mus musculus [2] was “Active” each time. Moreover, the result with Mus musculus [3] was Active.
Turning to `Cc1n[nH]c(C)c1/N=C/c1ccc(O)cc1`, the inhibition result in the series on Mus musculus [1] and with Mus musculus [2] was “Active” in each case. Also, the outcome in the series with Mus musculus [3] was Active.
As to `Cc1n[nH]c(C)c1/N=C/c1c(Cl)cccc1Cl`, the inhibition entry with Mus musculus [1], with Mus musculus [2] and in the series on Mus musculus [11] was “Active” throughout. Besides, the outcome in the series on Mus musculus [9] and in the series on Mus musculus [10] was inactive. For the same compound, in the series on Mus musculus [3], the outcome was Active.
Turning to `Cc1ccc(C(=O)Nc2c(C)nn(C(=O)c3ccc(C)cc3)c2C)cc1`, the inhibition entry with Mus musculus [1] and in the series with Mus musculus [2] was “Active” throughout. Also, the outcome with Mus musculus [3] was Active.
Regarding `Cc1n[nH]c(C)c1/N=C/c1ccccc1O`, the inhibition entry in the series on Mus musculus [1] and in the series on Mus musculus [2] was “Active” in each case. Also, in the series on Mus musculus [3], the outcome was Active.
With `CCC1(C)CC(=O)NC1=O` (configuration not stated), the inhibition entry in the series with Mus musculus [1] and in the series on Mus musculus [2] was “Active” each time. The result in the series with Mus musculus [3] was Active.
Take `Cc1nn(C(=O)c2ccc(F)cc2)c(C)c1NC(=O)c1ccc(F)cc1`: the inhibition entry with Mus musculus [1], in the series with Mus musculus [2] and in the series on Mus musculus [11] was “Active” in each case. Moreover, the outcome in the series with Mus musculus [9] and in the series on Mus musculus [10] was inactive. Moreover, the outcome in the series on Mus musculus [3] was Active.
On to `COc1ccc(C(=O)Nc2c(C)nn(C(=O)c3ccc(OC)cc3)c2C)cc1`, for which the inhibition entry with Mus musculus [1] and in the series with Mus musculus [2] was “Active” in each case. Also, the inhibition result with Mus musculus [5] is “inactive”. Besides, the result in the series on Mus musculus [7] and in the series on Mus musculus [3] was Active. The result in the series on Mus musculus [12] was inactive.

(Values after ChEMBL document CHEMBL3044833, “Anticonvulsant activity of 3,5-dimethylpyrazole derivatives in animal models” (Med Chem Res, 2011).)
